Patent publication US7030126B2, “Use of polyamine analogs for amyotrophic lateral sclerosis” (ALS Therapy Development Foundation, Inc., priority 2001, dated 2006)
Read-outs that look alike come from different tables or passages of the source.

Assays:
[1] = system: cellular concentrations of putrescine, spermidine and spermine; settings: cited from earlier work
[2] = system: SOD1 G93A mice; assay: DENSPM in SOD-1 (G93A) mouse model of ALS: survival and neurological score; type: in vivo; settings: female mice
Source text: (§1) Survival in the mouse is copy dependent.
Results are shown in FIGS. 12 and 13 and described below.

[3] = system: patients with advanced non-small cell lung cancer; settings: Phase I; cited from earlier work
[4] = system: SOD1 G93A mice; assay: Discontinuous dosing of DFMO in SOD-1 (G93A) mouse model of ALS: survival and neurological score; type: in vivo
Source text: as §1
(§2) Controls animals were given water as vehicle.
Results are shown in FIGS. 2 and 3 and described below.

[5] = system: SOD1 G93A mice; assay: Continuous dosing of DFMO in SOD-1 (G93A) mouse model of ALS: survival and neurological score; type: in vivo
Experimental: as §1, §2
During this study, DFMO was delivered chronically at a dose of 3200 mg/Kg/day in drinking water […] without any drug holiday until death according to the methods described in Example 1. Results are shown in FIGS. 4–9 and described below.

[6] = system: SOD1 G93A mice; assay: Ongoing IP injection study of DFMO in SOD1 G93A mice; type: in vivo, mouse; settings: 3200 mg/kg
Source text: Studies are currently underway to analyze polyamines in male vs. female mSOD1 mice and wild-type mice. While positive effects are seen in male mice, the effect is less reliable at current doses. Differences in polyamine synthesis and regulation exist between the sexes and may account for the different observed effects. […] Higher plasma concentration of DFMO can be achieved by systemic delivery as opposed to oral delivery.

[7] = system: SOD1 G93A mice
Source text: (vi) Neurological Scoring: Neurological score of each limb was monitored and recorded according to a defined 4-point scale defined below: […]

[8] = 24 mg/kg/day IP twice daily till death, FIG. 12

## CCNCCCNCCCNCCCNCC [DENSPM, N(1),N(11)-diethylnorspermine]
[1]
  cellular concentrations of putrescine, spermidine and spermine: reduce
[2]; [8]
  onset of disease: delays the onset of disease
  survival: extends the survival
[2]; 24 mg/kg/day IP twice daily, FIG. 13
  neurological score analysis, effect: protective
[3]
  toxicity in patients: minimal toxicity

## NCCCC(N)(C(=O)O)C(F)F (racemic) [DFMO, 2-(Difuoromethyl)-DL-ornithine]
[4]; 3200 mg/Kg/day in drinking water, 21 days on, 7 day drug holiday
  onset of disease: delays the onset of disease
[4]; 3200 mg/Kg/day in drinking water, 21 days on, 7 day drug holiday, FIG. 2
  survival: extends the survival
[4]; combined male and female results, discontinuous delivery
  neurological score analysis, effect: No effect
[4]; female mice, during drug delivery period, discontinuous delivery, FIG. 3
  neurological score analysis, effect: protective
[4]; female mice, 3200 mg/Kg/day in drinking water, 21 days on, 7 day drug holiday, FIG. 2
  deaths of animals in the treatment group that occurred during the drug holiday or a few days immediately succeeding the holiday: 70%
[4]; female mice, discontinuous delivery, FIG. 3
  total female effect: 3.5%
[4]; male mice, discontinuous delivery
  neurological score analysis, effect: No effect
[5]; 3200 mg/Kg/day in drinking water, no drug holiday
  onset of disease: delays the onset of disease
[5]; 3200 mg/Kg/day in drinking water, no drug holiday, FIGS. 4, 6 and 8
  life span / survival: extended the life span
[5]; combined male and female, continuous delivery, FIG. 5
  neurological score analysis, effect: protective
[5]; female mice, continuous delivery
  effect: 11.48%
[5]; female mice, continuous delivery, FIG. 9
  neurological score analysis, effect: protective
[5]; male and female combined, continuous delivery, Cox proportional hazard, litter effect as frailty term, p=0.02
  total combined effect: 9.69%
[5]; male mice, continuous delivery
  effect: 8.21%
[5]; male mice, continuous delivery, FIG. 7
  neurological score analysis, effect: protective
[6]
  trend in male mice: positive male trend

## NC(=O)NO [hydroxyurea]
[7]; 250 mg/Kg/day IP once daily, day 50 to day 110
  onset of ALS disease: delays the onset of ALS disease
[7]; female mice, 250 mg/Kg/day IP once daily, day 50 to day 110, FIG. 10
  life span / survival: extended the life span
[7]; female mice, 250 mg/Kg/day IP, FIG. 11
  neurological score analysis, effect: protective
